Measured values: paper PMC8351955, “Targeting Mycobacterium tuberculosis response to environmental cues for the development of effective antitubercular drugs” (PLoS Biology, 2021)
Where two headings read alike, the source gives them in different places.

How the values were obtained:
[1] = tested on: CDC1551(rv1405c′::GFP) reporter Mtb strain; experiment: microbe, parasite or virus in culture; assay type: cell-based, Mycobacterium tuberculosis; conditions: Mycobacterium tuberculosis; for activity at 10 µM: read-out: rv1405c'::GFP secondary assay NPA% at 10 µM compound; for activity at 20 µM: read-out: rv1405c'::GFP secondary assay NPA% at 20 µM compound
[2] = tested on: CDC1551(rv2390c′::GFP) reporter Mtb strain, response to high [Cl−]; experiment: microbe, parasite or virus in culture; assay type: cell-based, Mycobacterium tuberculosis; conditions: Mycobacterium tuberculosis, 144 h; for activity at 20 µM: read-out: rv2390c'::GFP validation assay NPA% at 20 µM compound
[3] = pH 6.4, […], DMSO positive control = 100%, read-out: Primary screen rv2390c'::GFP NPA%
[4] = 10 µM, pH 6.4, 250 mM NaCl, 6 days, read-out: rv2390c'::GFP validation assay NPA% at 10 µM compound

SMILES | activity at 10 µM [1] [%] | activity at 20 µM [1] [%] | activity at 10 µM [2, 3] [%] | activity at 10 µM [2, 4] [%] | activity at 20 µM ([2]; pH 6.4, 250 mM NaCl, 6 days) [%]
CCOc1cc(F)ccc1NC(=O)Nc1cccc(C#N)c1 [RU-0273629, CCOC1=C(NC(=O)NC2=CC(=CC=C2)C#N)C=CC(F)=C1] | 188 ± 18 | 540 ± 65.6 | 170 | 203 ± 16.4 | 318 ± 21.4
COc1ccc2c(C)cc(Nc3cc(F)ccc3C)nc2c1 [RU-0202188, COC1=CC2=C(C=C1)C(C)=CC(NC1=C(C)C=CC(F)=C1)=N2] | 206 ± 10.4 | 256 ± 16.6 | 159 | 128 ± 12.2 | 132 ± 17.8
Cc1ccc(NC(=O)c2cc(C)n(C3CC3)c2C)c(C)c1 [RU-0276186, CC1=CC(C(=O)NC2=C(C)C=C(C)C=C2)=C(C)N1C1CC1] | 95.4 ± 4.5 | 123 ± 13.3 | 159 | 105 ± 5.3 | 157 ± 13.8
COCCCC(=O)Nc1cccc(NC2CCCC2)c1 [RU-0215502, COCCCC(=O)NC1=CC(NC2CCCC2)=CC=C1] | 342 ± 33.3 | 804 ± 46.8 | 216 | 152 ± 5 | 276 ± 16.4
CC(CCc1ccccc1)Nc1ncnc(-n2cccn2)c1N (stereo not drawn) [RU-0203332, CC(CCC1=CC=CC=C1)NC1=C(N)C(=NC=N1)N1C=CC=N1] | 117 ± 5.3 | 182 ± 8.5 | 151 | 100 ± 2.9 | 135 ± 16.1
Cn1ccc(C(=O)Nc2nc(Sc3ccccc3)ns2)cc1=O [RU-0206593, CN1C=CC(=CC1=O)C(=O)NC1=NC(SC2=CC=CC=C2)=NS1] | 42 ± 9.6 | 38.3 ± 17.6 | 42.6 | 39.2 ± 6.9 | 22.7 ± 6.8
Cc1ccc(-c2nc3nc(N)n(C)c(=O)c3nc2-c2ccc(C)cc2)cc1 [RU-0192424, CN1C(N)=NC2=NC(C3=CC=C(C)C=C3)=C(N=C2C1=O)C1=CC=C(C)C=C1] | 97 ± 3.1 | 120 ± 9.3 | 160 | 140 ± 10.1 | 169 ± 12.3
CSc1nc2nc3c(cc2c(=O)[nH]1)C(O)Oc1ccc(C)cc1-3 (stereo not drawn) [RU-0183239, CSC1=NC2=C(C=C3C(O)OC4=C(C=C(C)C=C4)C3=N2)C(=O)N1] | 53.9 ± 4.3 | 12.9 ± 5.2 | 49.5 | 49.2 ± 4.2 | 33.7 ± 1.8
Cc1ccc2cc(S(=O)(=O)NCCn3nc(C)c(Cl)c3C)ccc2c1 [RU-0211306, CC1=NN(CCNS(=O)(=O)C2=CC3=C(C=C2)C=C(C)C=C3)C(C)=C1Cl] | 84.4 ± 8.8 | 99.4 ± 9.4 | 154 | 122 ± 3.2 | 156 ± 2.1
CCNC(=O)c1ccccc1OCc1nc(-c2ccc3c(c2)OCO3)no1 [RU-0257147, CCNC(=O)C1=C(OCC2=NC(=NO2)C2=CC3=C(OCO3)C=C2)C=CC=C1] | 82 ± 5.5 | – | 154 | 92.6 ± 5.8 | 127 ± 7.2
O=C(O)c1cc2ccccc2cc1NS(=O)(=O)N1CCCCC1 [RU-0210069, OC(=O)C1=C(NS(=O)(=O)N2CCCCC2)C=C2C=CC=CC2=C1] | 52.8 ± 1.5 | 31.2 ± 2.6 | 44.6 | 66.4 ± 3.4 | 58.6 ± 5.9
Cc1nc(NS(=O)(=O)c2ccc(F)c(F)c2)n(-c2ccc(C#N)cc2)n1 [RU-0203361, CC1=NN(C(NS(=O)(=O)C2=CC(F)=C(F)C=C2)=N1)C1=CC=C(C=C1)C#N] | 119 ± 11.5 | 169 ± 13.4 | 152 | 121 ± 1.5 | 160 ± 15.7
O=C(c1nccc2ccccc12)N1CCN(CC2CCCC2)CC1 [RU-0257267, O=C(N1CCN(CC2CCCC2)CC1)C1=C2C=CC=CC2=CC=N1] | 267 ± 23 | 822 ± 58.1 | 199 | 140.3 ± 0.6 | 254 ± 8.7
CCCn1ncc(C(=O)NC(C)C(=O)Nc2ccc(F)cc2C)c1C (stereo not drawn) [RU-0232065, CCCN1N=CC(C(=O)NC(C)C(=O)NC2=CC=C(F)C=C2C)=C1C] | 91.3 ± 9.4 | 98.3 ± 13 | 154 | 119 ± 6.6 | 147 ± 14.2
CC(C)CCOc1ccc(C(=O)Nc2cc(Cl)ccc2C(N)=O)cc1 [RU-0202925, CC(C)CCOC1=CC=C(C=C1)C(=O)NC1=C(C=CC(Cl)=C1)C(N)=O] | 63.2 ± 8.6 | 61.8 ± 14.4 | 46.5 | 57.1 ± 7.4 | 60.8 ± 9.8
COc1ccc(OC)c(C2CCCN2C(=O)NCc2cccs2)c1 (stereo not drawn) [RU-0273525, COC1=CC(C2CCCN2C(=O)NCC2=CC=CS2)=C(OC)C=C1] | 119 ± 11.1 | 184 ± 6.5 | 150 | 158 ± 14.1 | 232 ± 6.9
COc1ccc(NCc2ccc(OC)c(Br)c2)cn1 [RU-0270711, COC1=NC=C(NCC2=CC(Br)=C(OC)C=C2)C=C1] | 227 ± 8.7 | 603 ± 10.5 | 162 | 135 ± 4 | 292 ± 6.7
CC(OC(=O)CC(C)(C)C)c1nc2cc(Cl)ccc2n1C (stereo not drawn) [RU-0203619, CC(OC(=O)CC(C)(C)C)C1=NC2=C(C=CC(Cl)=C2)N1C] | 75.6 ± 6.2 | 96.6 ± 5.5 | 153 | 95.6 ± 13.8 | 131 ± 11
OCC(CNc1nc(N2CCCC2)nc(N2CCCC2)n1)Cc1ccco1 (stereo not drawn) [RU-0198952, OCC(CNC1=NC(=NC(=N1)N1CCCC1)N1CCCC1)CC1=CC=CO1] | 171 ± 12.8 | 380 ± 28.2 | 170 | 123 ± 7.8 | 194 ± 15.6
CC(CNC(=O)Nc1cccc(-c2noc(=O)[nH]2)c1)c1ccccc1 (stereo not drawn) [RU-0182956, CC(CNC(=O)NC1=CC(=CC=C1)C1=NOC(=O)N1)C1=CC=CC=C1] | 38.3 ± 1.6 | 9.7 ± 1.2 | 48.1 | 66.7 ± 2.4 | 39 ± 3.5
Cn1cc(CCC(=O)Nc2ccc3c(c2)S(=O)(=O)C=C3)cn1 [RU-0278569, CN1C=C(CCC(=O)NC2=CC3=C(C=CS3(=O)=O)C=C2)C=N1] | 74.5 ± 5.4 | 76.5 ± 4.9 | 47.1 | 80.9 ± 7.4 | 63.4 ± 5.6
Cn1cccc1C(=O)NS(=O)(=O)c1ccc(C#N)c(Cl)c1 [RU-0207640, CN1C=CC=C1C(=O)NS(=O)(=O)C1=CC(Cl)=C(C=C1)C#N] | 175 ± 20 | 357 ± 29.5 | 177 | 148 ± 12.2 | 203 ± 22.6
CCOC(=O)c1nnc(NC(=O)c2cc(Cl)cc(Cl)c2)s1 [RU-0203287, CCOC(=O)C1=NN=C(NC(=O)C2=CC(Cl)=CC(Cl)=C2)S1] | 99 ± 5.3 | 111 ± 11.8 | 174 | 118 ± 12.5 | 138 ± 17
CC(NC(=O)C1Cc2cc(Cl)ccc2O1)c1ccc(F)c(F)c1 (stereo not drawn) [RU-0272361, CC(NC(=O)C1CC2=C(O1)C=CC(Cl)=C2)C1=CC(F)=C(F)C=C1] | 83.2 ± 14.8 | 107 ± 4.9 | 162 | 152 ± 9 | 215 ± 14
O=S(=O)(Nc1c(F)cccc1F)c1c(Cl)cccc1Cl [RU-0271471, FC1=CC=CC(F)=C1NS(=O)(=O)C1=C(Cl)C=CC=C1Cl] | 32.2 ± 2 | 13.8 ± 3.7 | 26 | 46.1 ± 5.6 | 25.7 ± 1.9
OC1(c2ccccc2)CCN(Cc2cnc3c(-c4ccccc4)cnn3c2)CC1 [RU-0224846, OC1(CCN(CC2=CN3N=CC(=C3N=C2)C2=CC=CC=C2)CC1)C1=CC=CC=C1] | 101 ± 18 | 140 ± 37.5 | 153 | 118 ± 10.8 | 159 ± 15.9
